Laboratory results from patent publication US20090220528A1, “Stimulation of Toll-Like Receptors on T Cells” (THE TRUSTEES OF THE UNIVERISTY OF PENNSYLVANIA CNETER FOR …, priority 2005, published 2009).

Columns and labels:
activated CD4+ T cells [1] = assay: NF-κB and MAP kinase signaling analysis (phospho-specific Western blot); type: cell-based, mouse; conditions: anti-CD3/anti-CD28 activated BALB/c CD4+ T cells (FIG. 2)
Experimental: BALB/c CD44^lowCD25^−CD4^+ T cells were activated with plate-bound 1.0 μg/ml anti-CD3 and 1.0 μg/ml anti-CD28 monoclonal antibodies for 16 hours, washed, and rested for 8 hours at 37° C. Activated (1.5×10^6) CD4^+ T cells were then treated with TLR ligands for the indicated times, lysed in 1×SDS loading buffer (Bio-Rad Life Sciences), resolved on a 12% bis-Tris SDS-PAGE gel (Life Technologies), transferred to nitrocellulose filters (Life Technologies), and either probed with rabbit anti-mouse phospho-specific Abs for p-IκBα, p-p38, p-extracellular signal-regulated kinase (ERK) 1/2, or p-C-Jun N-terminal kinase (JNK)/stress-activated protein kinase (SAPK). To assess total amounts of signaling molecules, filters were also probed with either rabbit anti-mouse IκBα, p-38, ERK-1/2, or JNK/SAPK antibodies. Detection was conducted with HRP-conjugated goat ant-rabbit antibodies, ECL reagent (Amersham), and X-OMAT Film (Kodak, Rochester, N.Y.). All antibodies were purchased from Cell Signal Technologies (Beverly, Mass.).
TLR ligands induce the activation of nuclear factor NF-κB and MAP kinases in APCs (Akira, 2003, J. Biol. Chem. 278:38105; Martin et al., 2002 Biochem. Biophys. Acta. 1592:265). The next set of experiments were designed to assess whether TLR ligands could also induce NF-κB and MAP kinase activity in activated CD4^+ T cells (FIG. 2). […]

activated CD4+ T cells [2] = assay: Analysis of antiapoptotic molecules (Bcl-2 FACS; Bcl-xL, Bcl-3 Western blot); type: cell-based, mouse
Experimental: For Bcl-2 evaluation, CD4^+ T cells were permeabilized with 0.1% saponin/0.2% FBS/PBS and stained with anti-Bcl-2 PE monoclonal antibody (3F-11; BD PharMingen) or an isotype hamster IgG-PE control (A19-3; BD PharMingen) and staining was analyzed by FACS. Bcl-xL, Bcl-3, and β-actin were analyzed by Western blotting using rabbit anti-mouse Abs specific for BCl-xL (BD Transduction Laboratories, Lexington, Ky.), Bcl-3 (Santa Cruz Biotechnology, Santa Cruz, Calif.), and β-actin (Accurate Labs, Westbury, N.Y.).
Members of the Bcl family are mediators of activated CD4^+ T cell survival. […] Therefore, levels of each of these molecules were measured following TLR ligand treatment of activated CD4^+ T cells (FIGS. 4C and 4D). Bcl-2 protein levels were not changed by TLR ligand treatment relative to untreated activated CD4^+ T cell controls. Additionally, Bcl-3 protein levels were also left unaffected despite the fact that all of the TLR ligands used in the experiment are also used as adjuvants (Mitchell et al., 2001, Nat. Immunol. 2:397). […] Thus, directly mediated activated CD4^+ T cell survival is associated with specific BCl-xL up-regulation.

CD4+ T cells = assay: TLR ligation at the time of T cell stimulation: proliferation, IL-2 production and signaling; type: cell-based, mouse
Experimental: The present experiments were designed to assess the effects of TLR ligation at the time of T cell stimulation, and analysis of signaling pathways which mediate them.
Similar results were observed when anti-CD28 was used in combination with anti-CD3 (FIGS. 7B-7D). IL-2 production from treat T cells were also measured (FIG. 8). These effects were additive to those of anti-CD28 stimulation.
This led to the examination of other signaling pathways downstream of TLR9. For example, experiments were designed to assess the role of phosphatidyl inositol 3 kinase (PI3K) in TLR9 activation because of the ability of TLR ligation to synergize with TCR stimulation for IL-2 production and proliferation was reminiscent of CD28 functions. PI3K is a lipid kinase which catalyzes the phosphorylation of phosphatidyl inositol bis 4, 5, phosphate (PIP2) into phosphatidyl inositol tris 3, 4, 5, phosphate (PIP3). PIP3 is an important cell signaling molecule, activating protein kinase B/Akt, and other downstream pathways. In T cells, PI3K activation is a major known downstream signaling pathway of the T cell costimulatory receptor CD28.

[3] = tested on: activated DO11.10 CD4+ T cells; assay: Adoptive transfer and ex vivo proliferation analysis; type: in vivo, mouse
Experimental: Five million purified DO11.10 CD4^+ T cells were activated by pOVA-pulsed APCs (1 μg/ml), purified with magnetic beads, treated with poly(I:C) (90 μg/ml), CpG DNA (30 μM), LPS (100 ng/ml), or left untreated for 16 hours, washed in PBS twice, and then adoptively transferred into BALB/c hosts. At day 30, spleen and peripheral lymph nodes were harvested and stained with anti-CD4 monoclonal antibody and the DO11.10 clonotypic monoclonal antibody KJI-26. Survival of activated DO11.10 CD4^+ T cells in each host was determined by FACS analysis and is expressed as a percent with respect to the total number of CD4^+ T cells found in either the host spleen or lymph nodes along with a mean (thick line) for each treatment group. […] [^3H]Thymidine was added to cultures for an additional 8 hour and read on a beta scintillation counter and is expressed as a mean for each treatment group ±SEM.
To address this question, DO11.10 CD4^+ T cells were first activated with pOVA-pulsed APCs, purified by magnetic beads, treated with TLR ligands for 16 hours, washed, and then adoptively transferred into congenic BALB/c hosts. Survival and ex vivo proliferative responses were assessed 30 days later (FIGS. 5A and 5B). […]

Substance: poly(I:C)
- NF-κB activity (phosphorylation of IκBα) (activated CD4+ T cells [1]): induce rapid NF-κB activity
- phosphorylation of p38 MAPK, ERK 1/2 and JNK/SAPK (activated CD4+ T cells [1]): able to effect phosphorylation
- Bcl-xL protein (activated CD4+ T cells [2]; over LPS-treated and untreated activated CD4+ T cells): significant increases
- Bcl-3 protein levels (activated CD4+ T cells [2]; relative to untreated activated CD4+ T cell controls): not observed
- IL-2 protein production with T cell stimulation (CD4+ T cells; FIG. 8): able to synergize
- TRAF6 requirement of proliferative effects (CD4+ T cells; FIG. 9): did not require TRAF6
- T cell proliferation with T cell stimulation (CD4+ T cells; with sub-mitogenic anti-CD3, with or without anti-CD28 (FIG. 7)): able to synergize
- increase in percentage of recovered DO11.10 CD4+ T cells in host spleen ([3]; day 30 after adoptive transfer into BALB/c hosts, cells treated 16 hours before transfer, vs LPS-treated or untreated cells (FIG. 5A)): ~2 fold
- increase in proliferative response to pOVA of splenic CD4+ T cells ([3]; ex vivo, day 30, vs hosts that received LPS-treated or untreated cells (FIG. 5B)): 2 fold
